The results in this text go back to article PMC5104425, “A Novel Selective Inhibitor of Delta-5 Desaturase Lowers Insulin Resistance and Reduces Body Weight in Diet-Induced Obese C57BL/6J Mice” (PLoS ONE, 2016).

One data set addresses T1, rat D5D (Rattus norvegicus, UniProt Q920R3).
T1 construct: using hepatic microsomes prepared from SD rats; from tissue; host or cells: liver microsomes of SD rats (CLEA, Japan)
Nature of the data set: In vitro enzyme assay for desaturase activity (hepatic microsomes), D5D. The format is biochemical. The protocol:
Therefore, we also confirmed that compound-326 has no effect on D9D activity. Inhibitory activity of compound-326 on rat D5D, D6D, and D9D was evaluated using hepatic microsomes prepared from SD rats (CLEA, Japan) as described previously. Assays were performed in a total volume of 30 μL in 96-well plates in a buffer containing 100 mM NaHPO4, 150 mM KCl, 10 mM NaF, 1.5 mM glutathione, 3 mM MgCl2, 1 mM NADH, 3 mM ATP, 0.3 mM CoA-SH, and 0.1% fatty acid free bovine serum albumin (BSA, Sigma, St. Louis, MO); and 0.1 μCi/well of [^14C] DGLA or [^14C] linoleic acids (ARC, St. Louis, MO) were used as substrates for measuring D5D and D6D activities, respectively. After pre-incubation of the test compound with rat liver microsomes (final 1.0 mg/mL) for 5 min, the reaction was started by the addition of NADH, ATP, and the substrates, and the reaction mixture was incubated for another 120 min at room temperature. For D9D assay, [^14C] stearoyl-CoA (PerkinElmer, Waltham, MA) was used in the absence of NADH, ATP, and CoA-SH, and D9D enzyme reaction was performed for 30 min. The reactions were then terminated by the addition of 0.63 N NaOH. […] 2.3 (Fujifilm) and IC50 values were determined using the conversion ratio from the radioactive substrates (20:3n6, 18:2n6 and 18:0) to the products (20:4n6, 18:3n6 and 18:1n9).

The test system of the next data set is DIO mice. Description: Anti-obesity effects in DIO mice, 6-week treatment (HFD D12492): BW, calorie intake, observations. It is filed as in vivo, C57BL/6J mice. The protocol: In this report, we performed 3 independent studies in DIO mice to characterize anti-obesity effects of our D5D specific inhibitor. Male C57BL/6J mice were obtained from Charles River Laboratories (Yokohama, Japan) or CLEA Japan (Osaka, Japan). The mice were fed a laboratory chow and water ad libitum and housed in a 12-h light/dark cycle. Compound or vehicle was administered once daily between 15: 00–19:00 by oral gavage. Body weight (BW) and food intake were monitored throughout the experiment.
Mice were fed a high-fat diet (HFD) that has 60% kcal from fat and contains 0.09% (w/w) AA (D12492; Research diets, Inc., see S1 Table for fatty acid profile) from 5 weeks of age, and they were divided into 5 groups (7 animals per group) at 11 weeks of age based on BW and daily food intake. In this experiment, 30 mg/kg sibutramine, a […], was used as a positive control for anti-obesity effects. Mice were orally administered compound-326 at doses of 0.1, 1, and 10 mg/kg, sibutramine at a dose of 30 mg/kg, or vehicle for 6 weeks. After 6 weeks, blood concentrations of DGLA and AA under non-fasting condition were evaluated as pharmacodynamics (PD) markers, and oral glucose tolerance test (OGTT) was performed.

For another data set, the target named is T2, human D5D (Homo sapiens, UniProt O60427).
T2 construct: endogenous in cells; host or cells: HepG2
T2 sequence (O60427 whole entry): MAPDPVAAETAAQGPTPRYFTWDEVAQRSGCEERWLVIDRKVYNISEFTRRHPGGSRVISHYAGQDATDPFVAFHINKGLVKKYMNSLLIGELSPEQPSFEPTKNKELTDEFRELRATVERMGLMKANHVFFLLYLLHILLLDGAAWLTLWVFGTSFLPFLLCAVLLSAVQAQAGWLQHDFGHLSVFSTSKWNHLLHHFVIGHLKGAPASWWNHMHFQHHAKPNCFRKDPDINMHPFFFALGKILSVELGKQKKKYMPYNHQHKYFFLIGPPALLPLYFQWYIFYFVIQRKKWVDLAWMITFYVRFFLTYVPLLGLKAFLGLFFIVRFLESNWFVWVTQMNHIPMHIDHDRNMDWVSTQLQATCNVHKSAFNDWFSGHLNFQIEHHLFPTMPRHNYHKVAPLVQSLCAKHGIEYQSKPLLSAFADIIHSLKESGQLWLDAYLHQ
Nature of the data set: In vitro cell-based assay for desaturase activity (HepG2), D5D. The protocol:
HepG2 cells were seeded in 96-well cell culture plates at 100 000 cells/well and incubated overnight in DMEM supplemented with 10% fetal bovine serum, 100 U/mL penicillin, and 100 μg/mL streptomycin in 5% CO2 at 37°C. The cells were washed twice with 200 μL of PBS and incubated with the test compounds in DMEM with 0.1% fatty acid free BSA for 30 min. Then, 0.1 μCi/well of [^14C]-labeled DGLA, linoleic acid, and stearic acid (ARC, St. Louis, MO) were added for each desaturase assay. After incubation for 3 h at 37°C, the cells were washed 3 times with 200 μL of PBS to remove [^14C]-labeled substrates in the medium and 0.63 N of NaOH was added to saponify fatty acids. Radioactive substrates and products were extracted, separated, and analyzed using the method as described above.

A word on the IC50: it is the point on the concentration scale where inhibition reaches its midpoint. High values mean weaker potency, low ones greater potency.

T1 sequence (Q920R3 whole entry): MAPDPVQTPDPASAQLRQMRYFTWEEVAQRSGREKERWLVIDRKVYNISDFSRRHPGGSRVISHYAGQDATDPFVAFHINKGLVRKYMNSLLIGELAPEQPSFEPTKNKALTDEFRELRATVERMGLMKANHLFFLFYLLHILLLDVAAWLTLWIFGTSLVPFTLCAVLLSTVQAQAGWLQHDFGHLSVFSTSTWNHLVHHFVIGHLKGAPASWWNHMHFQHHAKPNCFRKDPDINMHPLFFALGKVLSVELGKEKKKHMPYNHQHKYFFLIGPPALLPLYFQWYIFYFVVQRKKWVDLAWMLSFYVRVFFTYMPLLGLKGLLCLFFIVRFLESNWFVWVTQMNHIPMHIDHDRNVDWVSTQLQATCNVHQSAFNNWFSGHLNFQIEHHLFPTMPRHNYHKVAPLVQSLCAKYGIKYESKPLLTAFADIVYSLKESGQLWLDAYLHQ

For `O=C1Cc2c(nc(OCC(F)(F)C(F)(F)F)n(-c3ccc(OCC(F)(F)F)cc3)c2=O)N1` [Compound-326, 2-(2,2,3,3,3-Pentafluoropropoxy)-3-[4-(2,2,2-trifluoroethoxy)phenyl]-5,7-dihydro-3H-pyrrolo[2,3-d]pyrimidine-4,6-dione], the IC50 at rat D5D was found to be 72 nM; against human D5D, 22 nM. Moreover, the BW result in the data set on DIO mice (compound-326 10 mg/kg p.o. once daily, 6 weeks) is on record as “gradual decrease in BW”; in the data set with DIO mice (compound-326 lower doses (0.1 and 1 mg/kg) p.o., 6 weeks), “not effective”. For the same compound, in the data set with DIO mice (compound-326 0.1-10 mg/kg p.o., 6 weeks), the “abnormal findings such as behavioral changes, diarrhea, or steatorrhea” value was “No abnormal findings”. For the same compound, in the data set on DIO mice (compound-326 at all doses (0.1, 1, 10 mg/kg), slight decrease at 10 mg/kg), the daily calorie intake entry was “not altered significantly”.
